# Data as given in patent US20240279214A1, “ALPHA4 BETA7 INEGRIN ANTAGONISTS AND USES THEREOF” (XinThera, Inc., priority 2022, published 2024).
# Target: T1, a4b1 integrin interaction with VCAM-1 (Homo sapiens, UniProt P05556+P13612)
# T1 construct: capture of a4b1 integrin expressing cells Jurkat; endogenous in cells; host or cells: Jurkat
# Assay: a4b1 Cell Capture Assay (Jurkat cells on VCAM-1 Fc coated plates)
# Type: cell-based
# Settings: 50% human serum, 1 mM MgCl2, 1 hour incubation, CellTiter-Glo luminescence
# Description: The potency of inhibitors in preventing a4b1 integrin interaction with VCAM-1 was measured by monitoring the capture of a4b1 integrin expressing cells Jurkat on recombinant human VCAM-1 Fc chimera protein-coated plates. The protein was a fusion between human VCAM-1 (Phe25-Glu698) Accession #P19320, Accession #AAY82472) and human IgG1 (Pro100-Lys330)] (R&D Systems, Catalog #862-VC). 96-well plates (Thermofisher, Catalog #136102) were coated with the recombinant protein by dispensing 100 μL of 0.25 μg/mL per well. After a quick spin to settle down the coating solution using plate centrifuge, plates were incubated overnight at 4° C. in a moisture chamber. On Day 2, the plates were washed with PBS using a Bluecatbio Blue®Washer (GentleSpin wash, 3 cycles, pressure=1, volume 150 uL). Blocking solution (1.0% BSA in PBS, Sigma, Catalog #A7979) was then added at 200 uL/well, and the plates were quickly spun to settle down blocking buffer and incubated in cell culture incubator at 37° C. and 5% CO2 for 1 hour. The plates were then washed with 0.1% BSA in PBS using a Bluecatbio Blue®Washer (GentleSpin wash, 3 cycles, pressure=1, volume 150 uL). Jurkat cells suspended in assay medium (1 mM MgCl2 25 mM HEPES and 50% human serum, Sigma, Catalog #H4522) at a density of 0.5×10^6 cells/mL were added at 100 uL/well. Each compound evaluated was prepared as a DMSO stock solution. Test compounds were evaluated with a 9-point serial dilution curve and were added to the plates using a Tecan D300e Digital dispenser. Each titration curves were performed in triplicate on the same plate, and most of compounds were retested in different dates multiple times. The plates were shaken at 300 rpm on orbital plate shaker for 3 minutes to mix the cells and compounds, quickly spun to settle the cells and solution, and incubated in cell culture incubator at 37° C. and 5% CO2. After 1 hour incubation, the unbound cells were washed away with RPMI1640 medium supplemented with 1 mM MgCl2 and 1% BSA) (wash buffer) using a Bluecatbio Blue®Washer (MagbeadsSpin wash, 1 cycle, pressure 1, volume=150 uL). After wash buffer removal, A mixture of wash buffer/CellTiter-Glo® Reagent (Pormega, catalog #G7573) at 1:1 (V/V) was added at volume of 100 uL to each well. The plates were placed in a chamber at 25° C. and incubated for 30 minutes. Luminescence was recorded using a Envision plate reader 2105 according to CellTiter-Glo protocol.
# The mean luminescence signals from negative control wells without VCAM-1 coating and compound treatment (cells only) was defined as 100% binding inhibition, and the mean luminescence signals from positive control wells with VCAM-1 coating but without compound treatment (VCAM-1 and cells only) was defined as 0% binding inhibition. The luminescence signals from other compound treated wells were normalized in percentage scale accordingly. The normalized mean % inhibition data were plotted against logarithmic compound concentration in nanomolar and were fitted with 4-parameter logistic model to obtain IC50 for each compound.
# T1 sequence (P13612 34-1032): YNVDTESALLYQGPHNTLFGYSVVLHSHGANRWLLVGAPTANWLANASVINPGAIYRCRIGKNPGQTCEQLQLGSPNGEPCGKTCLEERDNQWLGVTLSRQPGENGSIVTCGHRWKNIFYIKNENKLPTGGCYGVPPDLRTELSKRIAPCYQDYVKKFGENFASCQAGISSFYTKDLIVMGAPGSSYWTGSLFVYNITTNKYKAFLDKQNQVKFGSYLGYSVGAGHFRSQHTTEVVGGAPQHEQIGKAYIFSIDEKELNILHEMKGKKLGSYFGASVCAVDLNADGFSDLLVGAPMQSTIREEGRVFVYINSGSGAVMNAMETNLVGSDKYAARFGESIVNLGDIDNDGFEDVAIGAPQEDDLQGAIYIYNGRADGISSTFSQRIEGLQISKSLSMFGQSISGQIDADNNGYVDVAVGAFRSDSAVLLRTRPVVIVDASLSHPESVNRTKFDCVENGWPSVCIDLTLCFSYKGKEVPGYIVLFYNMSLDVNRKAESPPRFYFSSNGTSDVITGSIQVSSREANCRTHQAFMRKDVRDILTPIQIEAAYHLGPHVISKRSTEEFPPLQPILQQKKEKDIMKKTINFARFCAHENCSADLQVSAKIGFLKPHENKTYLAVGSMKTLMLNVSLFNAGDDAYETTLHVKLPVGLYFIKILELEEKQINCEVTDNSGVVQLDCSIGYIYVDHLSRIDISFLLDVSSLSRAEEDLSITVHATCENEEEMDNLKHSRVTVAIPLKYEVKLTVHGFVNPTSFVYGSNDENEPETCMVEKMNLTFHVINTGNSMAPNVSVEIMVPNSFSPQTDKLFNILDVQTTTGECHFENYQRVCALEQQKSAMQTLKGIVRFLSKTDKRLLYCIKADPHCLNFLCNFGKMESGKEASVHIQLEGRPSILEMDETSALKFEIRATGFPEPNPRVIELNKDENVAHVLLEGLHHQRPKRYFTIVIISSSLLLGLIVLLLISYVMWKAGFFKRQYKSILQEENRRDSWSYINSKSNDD
# T1 sequence (P05556 21-798): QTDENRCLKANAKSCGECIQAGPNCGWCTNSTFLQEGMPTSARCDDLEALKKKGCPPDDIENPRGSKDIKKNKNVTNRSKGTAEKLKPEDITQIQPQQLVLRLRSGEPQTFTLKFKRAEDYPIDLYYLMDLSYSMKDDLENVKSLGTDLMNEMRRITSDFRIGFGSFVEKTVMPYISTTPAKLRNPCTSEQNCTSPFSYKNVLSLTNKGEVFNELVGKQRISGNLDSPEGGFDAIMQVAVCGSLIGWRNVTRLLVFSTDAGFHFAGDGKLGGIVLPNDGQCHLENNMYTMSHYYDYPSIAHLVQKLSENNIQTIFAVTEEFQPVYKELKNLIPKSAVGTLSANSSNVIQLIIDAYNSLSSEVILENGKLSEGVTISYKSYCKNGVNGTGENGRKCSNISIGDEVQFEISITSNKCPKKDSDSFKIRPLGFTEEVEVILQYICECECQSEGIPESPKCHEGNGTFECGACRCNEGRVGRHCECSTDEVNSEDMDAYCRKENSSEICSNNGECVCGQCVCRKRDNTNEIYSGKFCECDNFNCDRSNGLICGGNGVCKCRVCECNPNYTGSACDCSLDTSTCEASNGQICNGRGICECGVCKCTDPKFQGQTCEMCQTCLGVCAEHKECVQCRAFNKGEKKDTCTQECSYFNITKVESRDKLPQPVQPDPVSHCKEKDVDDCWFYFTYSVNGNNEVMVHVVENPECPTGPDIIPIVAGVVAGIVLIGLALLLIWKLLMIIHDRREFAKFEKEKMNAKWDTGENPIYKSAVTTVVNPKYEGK
row,SMILES,EC50 [µM]
1,"Cc1cc2cc(c1F)[C@H](CC(=O)O)NC(=O)[C@@H](n1cc(CCN3CC(F)C3)c(C(F)(F)F)cc1=O)c1cc(ccc1F)Oc1cccc(C)c1-2 (relative stereo) [Example 7, [(14R*,17S)-12,19-difluoro-14-{5-[2-(3-fluoroazetidin-1-yl)ethyl]-2-oxo-4-(trifluoromethyl)pyridin-1-yl}-3,20-dimethyl-15-oxo-8-oxa-16-azatetracyclo[16.3.1.1^{9,13}.0^{2,7}]tricosa-1(21),2(7),3,5,9(23),10,12,18(22),19-nonaen-17-yl]acetic acid]",0.0615
2,"Cc1cccc2c1-c1cc(c(F)c(C(F)(F)F)c1)[C@H](CC(=O)O)NC(=O)[C@@H](n1cc(CCN3CC(F)C3)c(C(F)(F)F)cc1=O)c1cc(Cl)cc(c1)O2 (relative stereo) [Example 15, [(14R*,17S)-11-chloro-19-fluoro-14-{5-[2-(3-fluoroazetidin-1-yl)ethyl]-2-oxo-4-(trifluoromethyl)pyridin-1-yl}-3-methyl-15-oxo-20-(trifluoromethyl)-8-oxa-16-azatetracyclo[16.3.1.1^{9,13}.0^{2,7}]tricosa-1(22),2(7),3,5,9,11,13(23),18,20-nonaen-17-yl]acetic acid]",0.88
3,"Cc1cc(C2CC2)cc2c1-c1cc(c(F)c(C(F)(F)F)c1)[C@H](CC(=O)O)NC(=O)[C@@H](n1cc(CCN3CC(F)C3)c(C(F)(F)F)cc1=O)c1cccc(c1)O2 (relative stereo) [Example 10, [(14R*,17S)-5-cyclopropyl-19-fluoro-14-{5-[2-(3-fluoroazetidin-1-yl)ethyl]-2-oxo-4-(trifluoromethyl)pyridin-1-yl}-3-methyl-15-oxo-20-(trifluoromethyl)-8-oxa-16-azatetracyclo[16.3.1.1^{9,13}.0^{2,7}]tricosa-1(21),2(7),3,5,9,11,13(23),18(22),19-nonaen-17-yl]acetic acid]",11.9
4,"Cc1cc2cc(c1F)[C@H](CC(=O)O)NC(=O)[C@@H](n1cc(CCN3CC(F)C3)c(C(F)(F)F)cc1=O)c1cccc(c1)Oc1cccc(C)c1-2 (relative stereo) [Example 1, rel-2-((5S,8S)-1^4-fluoro-5-(5-(2-(3-fluoroazetidin-1-yl)ethyl)-2-oxo-4-(trifluoromethyl)pyridin-1(2H)-yl)-1^5,2^6-dimethyl-6-oxo-3-oxa-7-aza-1,4(1,3),2(1,2)-tribenzenacyclooctaphane-8-yl)acetic acid]",2.08
5,"Cc1cc(Cl)cc2c1-c1cc(c(F)c(C(F)(F)F)c1)[C@H](CC(=O)O)NC(=O)[C@@H](n1cc(CCN3CC(F)C3)c(C(F)(F)F)cc1=O)c1cccc(c1)O2 (single isomer, unassigned) [Example 11]",4.58
6,"Cc1cc2cc(c1F)[C@H](CC(=O)O)NC(=O)[C@@H](n1cc(CCN3CC(F)C3)c(C(F)(F)F)cc1=O)c1cc(Cl)cc(c1)Oc1cccc(C)c1-2 (single isomer, unassigned) [Example 3]",0.359
7,"Cc1cc(C)c2c(c1)Oc1cccc(c1)[C@H](n1cc(CCCN(C)C)c(C(F)(F)F)cc1=O)C(=O)N[C@@H](CC(=O)O)c1cn-2nc1C(F)(F)F (relative stereo) [Example 18, [(13S,16R*)-16-{5-[3-(dimethylamino)propyl]-2-oxo-4-(trifluoromethyl)pyridin-1-yl}-5,7-dimethyl-15-oxo-11-(trifluoromethyl)-2-oxa-9,10,14-triazatetracyclo[15.3.1.1^{9,12}.0^{3,8}]docosa-1(20),3(8),4,6,10,12(22),17(21),18-octaen-13-yl]acetic acid]",0.689
